Results on 3 compounds are retold here after ChEMBL document CHEMBL1158089, “Indoleamine 2,3-dioxygenase inhibitors from the Northeastern Pacific Marine Hydroid Garveia annulata” (J Nat Prod, 2006).

The target in the experiment is Indoleamine 2,3-dioxygenase 1 (Homo sapiens, UniProt P14902). Put plainly: Inhibition of human indoleamine 2,3-dioxygenase expressed in Escherichia coli by spectrophotometric activity assay.
Indoleamine 2,3-dioxygenase 1, sequence (P14902 whole entry): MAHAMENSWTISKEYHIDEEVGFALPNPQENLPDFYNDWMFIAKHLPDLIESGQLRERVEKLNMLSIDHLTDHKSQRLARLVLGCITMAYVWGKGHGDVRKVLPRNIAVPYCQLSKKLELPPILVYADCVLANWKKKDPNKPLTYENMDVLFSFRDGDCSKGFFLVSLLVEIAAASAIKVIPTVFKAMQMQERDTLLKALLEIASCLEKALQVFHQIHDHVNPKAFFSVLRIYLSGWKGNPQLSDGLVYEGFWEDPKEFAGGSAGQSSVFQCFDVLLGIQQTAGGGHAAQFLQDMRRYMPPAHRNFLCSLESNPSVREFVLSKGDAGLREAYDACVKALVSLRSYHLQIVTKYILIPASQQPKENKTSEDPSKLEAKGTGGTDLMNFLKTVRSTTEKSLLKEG
What is called Ki is a measure of affinity in units of concentration, obtained from inhibition or displacement. A high value points to lower affinity. The compound `CCc1c(C)cc2c(c1O)C(=O)C1=C(C2=O)C(C)(C)OC1(OC)C(=O)OC` (stereo not drawn) [ANNULIN C] yielded a Ki of 140 nM. In turn, `CCC1=C(C)C(=O)c2cc3c(c(O)c2C1=O)C(=O)C(C)(O)C(=O)C3(C)C` (stereo not drawn) came in with a Ki of 1400 nM. Turning to `COc1c(C(C)=O)c(C)cc2cc3c(c(O)c12)C(=O)C(C)(C)C(=O)C3(C)C` [GARVEATIN C], the Ki was determined as 1200 nM.
